# From patent US7211572B2 (Japan Tobacco Inc., priority 2003, dated 2007)
# Counter-ions that a name gives are not always drawn.
# Biological target: T1, HIV integrase (Human immunodeficiency virus type 1 group M subtype B, UniProt P12497, F1332H)
# T1 construct: HIV integrase full length gene; made in house; host or cells: Escherichia coli BL21(DE3), plasmid pET21a-INH
# Assay: Determination of enzyme (HIV integrase) inhibitory activity
# Assay type: biochemical
# Conditions: recombinant HIV integrase (F185H), strand transfer ELISA, absorbance at 450 nm
# Method in brief: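 Full-length integrase with F185H, expressed in E. coli and purified, was reacted for 60 min at 37 °C with compound and biotinylated donor DNA bound to streptavidin plates. Target DNA was added for 10 min, then anti-digoxigenin-peroxidase detection at A450; IC50 from % inhibition versus enzyme-free blank.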
row,Structure (SMILES),IC50 [nM]
1,"CCCNC(=O)c1cn2ccn(Cc3cccc(Cl)c3)c(=O)c2c(O)c1=O [Example 171, N-propyl-2-(3-chlorobenzyl)-9-hydroxy-1,8-dioxo-1,8-dihydro-2H-pyrido[1,2-a]pyrazine-7-carboxamide]",< 10
2,"CCCCNC(=O)c1cn2ccn(Cc3cccc(Cl)c3)c(=O)c2c(O)c1=O [Example 172, N-butyl-2-(3-chlorobenzyl)-9-hydroxy-1,8-dioxo-1,8-dihydro-2H-pyrido[1,2-a]pyrazine-7-carboxamide]",< 10
3,"CC(C)CNC(=O)c1cn2ccn(Cc3cccc(Cl)c3)c(=O)c2c(O)c1=O [Example 173, N-isobutyl-2-(3-chlorobenzyl)-9-hydroxy-1,8-dioxo-1,8-dihydro-2H-pyrido[1,2-a]pyrazine-7-carboxamide]",10 to 100
4,"COC(=O)CNC(=O)c1cn2ccn(Cc3cccc(Cl)c3)c(=O)c2c(O)c1=O [Example 174, methyl{[2-(3-chlorobenzyl)-9-hydroxy-1,8-dioxo-1,8-dihydro-2H-pyrido[1,2-a]pyrazine-7-carbonyl]amino}acetate]",10 to 100
5,"CCNC(=O)c1cn2ccn(Cc3cccc(Cl)c3)c(=O)c2c(O)c1=O [Example 175, N-ethyl-2-(3-chlorobenzyl)-9-hydroxy-1,8-dioxo-1,8-dihydro-2H-pyrido[1,2-a]pyrazine-7-carboxamide]",< 10
6,"COCCNC(=O)c1cn2ccn(Cc3cccc(Cl)c3)c(=O)c2c(O)c1=O [Example 176, N-(2-methoxyethyl)-2-(3-chlorobenzyl)-9-hydroxy-1,8-dioxo-1,8-dihydro-2H-pyrido[1,2-a]pyrazine-7-carboxamide]",10 to 100
7,"O=C(NCCOC(=O)C(F)(F)F)c1cn2ccn(Cc3cccc(Cl)c3)c(=O)c2c(O)c1=O [Example 177, 2-{[2-(3-chlorobenzyl)-9-hydroxy-1,8-dioxo-1,8-dihydro-2H-pyrido[1,2-a]pyrazine-7-carbonyl]amino}ethyl trifluoroacetate]",10 to 100
8,"O=C(NCCO)c1cn2ccn(Cc3cccc(Cl)c3)c(=O)c2c(O)c1=O [Example 178, N-(2-hydroxyethyl)-2-(3-chlorobenzyl)-9-hydroxy-1,8-dioxo-1,8-dihydro-2H-pyrido[1,2-a]pyrazine-7-carboxamide]",10 to 100
9,"O=c1ccn2ccn(Cc3cccc(Cl)c3O)c(=O)c2c1O [Example 179, 2-(3-chloro-2-hydroxybenzyl)-9-hydroxy-2H-pyrido[1,2-a]pyrazine-1,8-dione hydrochloride]",10 to 100
10,"O=C(NCc1ccccc1)c1cn2ccn(Cc3cccc(Cl)c3)c(=O)c2c(O)c1=O [Example 180, N-benzyl-2-(3-chlorobenzyl)-9-hydroxy-1,8-dioxo-1,8-dihydro-2H-pyrido[1,2-a]pyrazine-7-carboxamide]",< 10
11,"O=C(NCC(F)(F)F)c1cn2ccn(Cc3cccc(Cl)c3)c(=O)c2c(O)c1=O [Example 181, N-(2,2,2-trifluoroethyl)-2-(3-chlorobenzyl)-9-hydroxy-1,8-dioxo-1,8-dihydro-2H-pyrido[1,2-a]pyrazine-7-carboxamide]",10 to 100
12,"CCCCN(C)C(=O)c1cn2ccn(Cc3cccc(Cl)c3)c(=O)c2c(O)c1=O [Example 182, N-butyl-N-methyl-2-(3-chlorobenzyl)-9-hydroxy-1,8-dioxo-1,8-dihydro-2H-pyrido[1,2-a]pyrazine-7-carboxamide]",10 to 100
13,"COCCN(C)C(=O)c1cn2ccn(Cc3cccc(Cl)c3)c(=O)c2c(O)c1=O [Example 183, N-(2-methoxyethyl)-N-methyl-2-(3-chlorobenzyl)-9-hydroxy-1,8-dioxo-1,8-dihydro-2H-pyrido[1,2-a]pyrazine-7-carboxamide]",10 to 100
14,"O=C(c1cn2ccn(Cc3cccc(Cl)c3)c(=O)c2c(O)c1=O)N1CCCC1 [Example 184, 2-(3-chlorobenzyl)-9-hydroxy-7-(pyrrolidine-1-carbonyl)-2H-pyrido[1,2-a]pyrazine-1,8-dione]",10 to 100
15,"O=C(c1cn2ccn(Cc3cccc(Cl)c3)c(=O)c2c(O)c1=O)N1CCOCC1 [Example 185, 2-(3-chlorobenzyl)-9-hydroxy-7-(morpholine-4-carbonyl)-2H-pyrido[1,2-a]pyrazine-1,8-dione]",10 to 100
16,"COc1cc(Cn2ccn3ccc(=O)c(O)c3c2=O)ccc1Cl [Example 186, 2-(4-chloro-3-methoxybenzyl)-9-hydroxy-2H-pyrido[1,2-a]pyrazine-1,8-dione hydrochloride]",10 to 100
17,"COC(=O)Cc1cn2ccn(Cc3cccc(Cl)c3)c(=O)c2c(O)c1=O [Example 187, methyl [2-(3-chlorobenzyl)-9-hydroxy-1,8-dioxo-1,8-dihydro-2H-pyrido[1,2-a]pyrazin-7-yl]acetate]",10 to 100
18,"O=c1c(-c2nnn[nH]2)cn2ccn(Cc3cccc(Cl)c3)c(=O)c2c1O [Example 188, 2-(3-chlorobenzyl)-9-hydroxy-7-(1H-tetrazol-5-yl)-2H-pyrido[1,2-a]pyrazine-1,8-dione hydrochloride]",10 to 100

row,Structure (SMILES),IC50 [nM]
1,"CNC(=O)Cc1cn2ccn(Cc3cccc(Cl)c3)c(=O)c2c(O)c1=O [Example 189, 2-[2-(3-chlorobenzyl)-9-hydroxy-1,8-dioxo-1,8-dihydro-2H-pyrido[1,2-a]pyrazin-7-yl]-N-methylacetamide]",10 to 100
2,"CN(C)C(=O)Cc1cn2ccn(Cc3cccc(Cl)c3)c(=O)c2c(O)c1=O [Example 190, 2-[2-(3-chlorobenzyl)-9-hydroxy-1,8-dioxo-1,8-dihydro-2H-pyrido[1,2-a]pyrazin-7-yl]-N,N-dimethylacetamide]",10 to 100
3,"O=C(O)Cc1cn2ccn(Cc3cccc(Cl)c3)c(=O)c2c(O)c1=O [Example 191, [2-(3-chlorobenzyl)-9-hydroxy-1,8-dioxo-1,8-dihydro-2H-pyrido[1,2-a]pyrazin-7-yl]acetic acid]",10 to 100
4,"CC(O)CNC(=O)c1cn2ccn(Cc3cccc(Cl)c3)c(=O)c2c(O)c1=O (stereo not drawn) [Example 192, N-(2-hydroxypropyl)-2-(3-chlorobenzyl)-9-hydroxy-1,8-dioxo-1,8-dihydro-2H-pyrido[1,2-a]pyrazine-7-carboxamide hydrochloride]",10 to 100
5,"O=C(O)CNC(=O)c1cn2ccn(Cc3cccc(Cl)c3)c(=O)c2c(O)c1=O [Example 193, {[2-(3-chlorobenzyl)-9-hydroxy-1,8-dioxo-1,8-dihydro-2H-pyrido[1,2-a]pyrazine-7-carbonyl]amino}acetic acid]",10 to 100
6,"CN(C)C(=O)CNC(=O)c1cn2ccn(Cc3cccc(Cl)c3)c(=O)c2c(O)c1=O [Example 194, N-dimethylcarbamoylmethyl-2-(3-chlorobenzyl)-9-hydroxy-1,8-dioxo-1,8-dihydro-2H-pyrido[1,2-a]pyrazine-7-carboxamide]",10 to 100
7,"CNC(=O)CNC(=O)c1cn2ccn(Cc3cccc(Cl)c3)c(=O)c2c(O)c1=O [Example 195, N-methylcarbamoylmethyl-2-(3-chlorobenzyl)-9-hydroxy-1,8-dioxo-1,8-dihydro-2H-pyrido[1,2-a]pyrazine-7-carboxamide]",10 to 100
8,"O=C(Nc1ccccc1)c1cn2ccn(Cc3cccc(Cl)c3)c(=O)c2c(O)c1=O [Example 196, N-phenyl-2-(3-chlorobenzyl)-9-hydroxy-1,8-dioxo-1,8-dihydro-2H-pyrido[1,2-a]pyrazine-7-carboxamide hydrochloride]",10 to 100
9,"O=c1c(-c2ncco2)cn2ccn(Cc3cccc(Cl)c3)c(=O)c2c1O [Example 197, 2-(3-chlorobenzyl)-9-hydroxy-7-(oxazol-2-yl)-2H-pyrido[1,2-a]pyrazine-1,8-dione hydrochloride]",10 to 100
10,"O=C(c1cn2ccn(Cc3cccc(Cl)c3)c(=O)c2c(O)c1=O)N1CCC(O)C1 (stereo not drawn) [Example 198, 2-(3-chlorobenzyl)-9-hydroxy-7-(3-hydroxypyrrolidine-1-carbonyl)-2H-pyrido[1,2-a]pyrazine-1,8-dione hydrochloride]",10 to 100
11,"CC(=O)CNC(=O)c1cn2ccn(Cc3cccc(Cl)c3)c(=O)c2c(O)c1=O [Example 199, N-(2-oxopropyl)-2-(3-chlorobenzyl)-9-hydroxy-1,8-dioxo-1,8-dihydro-2H-pyrido[1,2-a]pyrazine-7-carboxamide]",10 to 100
12,"O=C(Cn1ccn2ccc(=O)c(O)c2c1=O)Nc1ccccc1 [Example 200, 2-(9-hydroxy-1,8-dioxo-1,8-dihydro-pyrido[1,2-a]pyrazin-2-yl)-N-phenylacetamide hydrochloride]",100 to 1000
13,"O=C1CCN(C(=O)c2cn3ccn(Cc4cccc(Cl)c4)c(=O)c3c(O)c2=O)C1 [Example 201, 2-(3-chlorobenzyl)-9-hydroxy-7-(3-oxopyrrolidine-1-carbonyl)-2H-pyrido[1,2-a]pyrazine-1,8-dione]",10 to 100
14,"COc1ccc(Cl)cc1Cn1ccn2ccc(=O)c(O)c2c1=O [Example 202, 2-(5-chloro-2-methoxybenzyl)-9-hydroxy-2H-pyrido[1,2-a]pyrazine-1,8-dione hydrochloride]",10 to 100
15,"CS(=O)(=O)Nc1cn2ccn(Cc3cccc(Cl)c3)c(=O)c2c(O)c1=O [Example 203, N-[2-(3-chlorobenzyl)-9-hydroxy-1,8-dioxo-1,8-dihydro-2H-pyrido[1,2-a]pyrazin-7-yl]methanesulfonamide]",< 10
16,"CC(=O)c1cn2ccn(Cc3cccc(Cl)c3)c(=O)c2c(O)c1=O [Example 204, 7-acetyl-2-(3-chlorobenzyl)-9-hydroxy-2H-pyrido[1,2-a]pyrazine-1,8-dione hydrochloride]",< 10
17,"CCC(=O)c1cn2ccn(Cc3cccc(Cl)c3)c(=O)c2c(O)c1=O [Example 205, 2-(3-chlorobenzyl)-9-hydroxy-7-propionyl-2H-pyrido[1,2-a]pyrazine-1,8-dione hydrochloride]",< 10
18,"O=c1ccn2ccn(C/C=C/c3ccccc3)c(=O)c2c1O [Example 206, 9-hydroxy-2-(3-phenylallyl)-2H-pyrido[1,2-a]pyrazine-1,8-dione]",10 to 100
